US20260374781A1, “NOVEL TRIHETEROCYCLIC COMPOUNDS” (IDENCE CO., LTD., priority 2022, published 2026)

Columns and labels:
[1] = tested on: AsPC-1 cells; experiment: Cell Proliferation Assay, AsPC-1 (CellTiter-Glo 2.0 viability); format: cell-based; settings: AsPC-1 pancreatic cancer (KRAS G12D mutation)
Description: (§1) Test Example 3: Cell Proliferation Assay
(§2) Cell viability testing of test compounds in AsPC-1 pancreatic cancer (KRAS G12D mutation) or SW480 colon cancer (KRAS G12V mutation) cells for 72 hours
(§3) The reference compound Staurosporine was purchased from Sigma-Aldrich (Saint Louis, MI), and CellTiter-Glo® 2.0 Luminescent cell viability assay reagent (cat #G9243) was purchased from Promega (Madison, WI). AsPC-1 and SW480 cell lines were purchased from American Type Culture Collection (Manassas, VA). AsPC-1 cells were cultured with RPMI-1640 (ATCC, cat #30-2001) and SW480 cells were cultured with DMEM (ATCC cat #30-2002).
(§4) A medium supplemented with 10% FBS (Sigma-Aldrich, cat #F2442) and 100 µg/mL of penicillin-streptomycin (Sigma-Aldrich, cat #P4333) was used. Cells were cultured at 37 °C in a humidified atmosphere of 5% CO2 and 95% air.
(§5) • 1. The test compound and reference compound, Staurosporine were dissolved in DMSO solution to prepare 20 mM (test compound) and 10 mM (control compound, Staurosporine) in the Source Plate and diluted with DMSO to 3-fold and 10 doses. • 2. From the Source Plate, 10 volumes of 125 nL test compound or 25 nL reference compound were dispensed into wells of a 384-well culture plate (VWR, cat #82050-076) using Echo 655. • 3. 25 μL of culture medium including 2000 AsPC-1 or SW480 cells was dispensed into each 384-well cell culture plate. • 4. Cells were cultured with the compound for 72 hours at 37 °C and 5% CO2 conditions. • 5. 25 μL of CellTiter-Glo 2.0 reagent was added to each well of the plate. • 6. The contents were mixed for 2 minutes on an orbital shaker, and the luminescence signal was stabilized at room temperature for 15 minutes. • 7. Luminescence signals were measured with an Envision 2104 Multilabel Reader (PerkinElmer, Santa Clara, CA), and the number of surviving cells was determined through quantification of ATP present in each culture. • 8. IC50 values were calculated based on the Sigmoidal dose-response equation in the GraphPad Prism 4 program.

[2] = tested on: SW480 cells; experiment: Cell Proliferation Assay, SW480 (CellTiter-Glo 2.0 viability); format: cell-based; settings: Homo sapiens; SW480 colon cancer (KRAS G12V mutation); 72 hours
Description: as §1, §2, §3, §4, §5

C#Cc1c(F)ccc2cc(O)cc(-c3nc4c5c(nc(OC[C@@]67CCCN6C[C@H](F)C7)nc5c3F)N([C@H](C)c3cccnc3N)C[C@H](C)O4)c12 [Example 6a, 4-((S)-10-((R)-1-(2-aminopyridin-3-yl)ethyl)-4-fluoro-2-(((2R,7aS)-2-fluorotetrahydro-1H-pyrrolizin-7a(5H)-yl)methoxy)-8-methyl-9,10-dihydro-8H-7-oxa-1,3,6,10-tetraazacyclohepta[de]naphthalen-5-yl)-5-ethynyl-6-fluoronaphthalen-2-ol]
IC50 ([1]; Homo sapiens, ASPC1, 72 h): 1 to 10 µM | IC50 [2]: 1 to 10 µM

C#Cc1c(F)ccc2cc(O)cc(-c3nc4c5c(nc(OCC6(CN7CCOCC7)CC6)nc5c3F)N(C(C)c3cccnc3N)CCO4)c12 (stereo not drawn) [Example 12, 4-(10-(1-(2-aminopyridin-3-yl)ethyl)-4-fluoro-2-((1-(morpholinomethyl)cyclopropyl)methoxy)-9,10-dihydro-8H-7-oxa-1,3,6,10-tetraazacyclohepta[de]naphthalen-5-yl)-5-ethynyl-6-fluoronaphthalen-2-ol]
IC50 ([1]; Homo sapiens, ASPC1, 72 h): 1 to 10 µM | IC50 [2]: < 1 µM

C#Cc1c(F)ccc2cc(O)cc(-c3nc4c5c(nc(OC[C@@]67CCCN6C[C@H](F)C7)nc5c3F)N([C@H](C)c3cccnc3N)CCO4)c12 [Example 13a, 4-(10-((R)-1-(2-aminopyridin-3-yl)ethyl)-4-fluoro-2-(((2R,7aS)-2-fluorotetrahydro-1H-pyrrolizin-7a(5H)-yl)methoxy)-9,10-dihydro-8H-7-oxa-1,3,6,10-tetraazacyclohepta[de]naphthalen-5-yl)-5-ethynyl-6-fluoronaphthalen-2-ol]
IC50 ([1]; Homo sapiens, ASPC1, 72 h): < 1 µM | IC50 [2]: < 1 µM

CCc1c(F)ccc2cc(O)cc(-c3nc4c5c(nc(OC[C@@]67CCCN6C[C@H](F)C7)nc5c3F)N([C@H](C)c3cccnc3N)CCO4)c12 [Example 14a, 4-(10-((R)-1-(2-aminopyridin-3-yl)ethyl)-4-fluoro-2-(((2R,7aS)-2-fluorotetrahydro-1H-pyrrolizin-7a(5H)-yl)methoxy)-9,10-dihydro-8H-7-oxa-1,3,6,10-tetraazacyclohepta[de]naphthalen-5-yl)-5-ethyl-6-fluoronaphthalen-2-ol]
IC50 ([1]; Homo sapiens, ASPC1, 72 h): < 1 µM | IC50 [2]: < 1 µM

CCc1c(F)ccc2cc(O)cc(-c3nc4c5c(nc(OC[C@@]67CCCN6C[C@H](OC)C7)nc5c3F)N(C(C)c3cccnc3N)CCO4)c12 (stereo partly drawn) [Example 17, 4-(10-(1-(2-aminopyridin-3-yl)ethyl)-4-fluoro-2-(((2R,7aS)-2-methoxytetrahydro-1H-pyrrolizin-7a(5H)-yl)methoxy)-9,10-dihydro-8H-7-oxa-1,3,6,10-tetraazacyclohepta[de]naphthalen-5-yl)-5-ethyl-6-fluoronaphthalen-2-ol]
IC50 ([1]; Homo sapiens, ASPC1, 72 h): < 1 µM | IC50 [2]: < 1 µM

C#Cc1c(F)ccc2cc(O)cc(-c3nc4c5c(nc(OCC6C[C@@H](F)CN6C)nc5c3F)N(C(C)c3cccnc3N)CCO4)c12 (stereo partly drawn) [Example 18, 4-(10-(1-(2-aminopyridin-3-yl)ethyl)-4-fluoro-2-(((4R)-4-fluoro-1-methylpyrrolidin-2-yl)methoxy)-9,10-dihydro-8H-7-oxa-1,3,6,10-tetraazacyclohepta[de]naphthalen-5-yl)-5-ethynyl-6-fluoronaphthalen-2-ol]
IC50 ([1]; Homo sapiens, ASPC1, 72 h): 1 to 10 µM | IC50 [2]: < 1 µM

C#Cc1c(F)ccc2cc(O)cc(-c3nc4c5c(nc(OC[C@@]67CCCN6C[C@H](F)C7)nc5c3F)N(C(C)c3ccccc3N)CCO4)c12 (stereo partly drawn) [Example 20, 4-(10-(1-(2-aminophenyl)ethyl)-4-fluoro-2-(((2R,7aS)-2-fluorotetrahydro-1H-pyrrolizin-7a(5H)-yl)methoxy)-9,10-dihydro-8H-7-oxa-1,3,6,10-tetraazacyclohepta[de]naphthalen-5-yl)-5-ethynyl-6-fluoronaphthalen-2-ol]
IC50 [2]: < 1 µM

CCc1c(F)ccc2cc(O)cc(-c3nc4c5c(nc(OCC6C[C@@H](F)CN6C)nc5c3F)N(C(C)c3cccnc3N)CCO4)c12 (stereo partly drawn) [Example 22, 4-(10-(1-(2-aminopyridin-3-yl)ethyl)-4-fluoro-2-(((4R)-4-fluoro-1-methylpyrrolidin-2-yl)methoxy)-9,10-dihydro-8H-7-oxa-1,3,6,10-tetraazacyclohepta[de]naphthalen-5-yl)-5-ethyl-6-fluoronaphthalen-2-ol]
IC50 ([1]; Homo sapiens, ASPC1, 72 h): 1 to 10 µM | IC50 [2]: < 1 µM

CCc1c(F)ccc2cc(O)cc(-c3nc4c5c(nc(OC[C@@]67CCCN6C[C@H](F)C7)nc5c3F)N(C(C)c3cc(C)cnc3N)CCO4)c12 (stereo partly drawn) [Example 23, 4-(10-(1-(2-amino-5-methylpyridin-3-yl)ethyl)-4-fluoro-2-(((2R,7aS)-2-fluorotetrahydro-1H-pyrrolizin-7a(5H)-yl)methoxy)-9,10-dihydro-8H-7-oxa-1,3,6,10-tetraazacyclohepta[de]naphthalen-5-yl)-5-ethyl-6-fluoronaphthalen-2-ol]
IC50 ([1]; Homo sapiens, ASPC1, 72 h): 1 to 10 µM | IC50 [2]: < 1 µM

CCc1c(F)ccc2cc(O)cc(-c3nc4c5c(nc(OCC6(C#N)CCOCC6)nc5c3F)N(C(C)c3cccnc3N)CCO4)c12 (stereo not drawn) [Example 24, 4-(((10-(1-(2-aminopyridin-3-yl)ethyl)-5-(8-ethyl-7-fluoro-3-hydroxynaphthalen-1-yl)-4-fluoro-9,10-dihydro-8H-7-oxa-1,3,6,10-tetraazacyclohepta[de]naphthalen-2-yl)oxy)methyl)tetrahydro-2H-pyran-4-carbonitrile]
IC50 ([1]; Homo sapiens, ASPC1, 72 h): > 10 µM | IC50 [2]: 1 to 10 µM

CCc1c(F)ccc2cc(O)cc(-c3nc4c5c(nc(OC[C@@H]6CC[C@H]7COCCN76)nc5c3F)N(C(C)c3cccnc3N)CCO4)c12 (stereo partly drawn) [Example 25, 4-(10-(1-(2-aminopyridin-3-yl)ethyl)-4-fluoro-2-(((6S,8aS)-hexahydro-1H-pyrrolo[2,1-c][1,4]oxazin-6-yl)methoxy)-9,10-dihydro-8H-7-oxa-1,3,6,10-tetraazacyclohepta[de]naphthalen-5-yl)-5-ethyl-6-fluoronaphthalen-2-ol]
IC50 ([1]; Homo sapiens, ASPC1, 72 h): 1 to 10 µM | IC50 [2]: < 1 µM

CCc1c(F)ccc2cc(O)cc(-c3nc4c5c(nc(OCC6(CN7CC[C@@H](F)C7)CC6)nc5c3F)N(C(C)c3cccnc3N)CCO4)c12 (stereo partly drawn) [Example 26, 4-(10-(1-(2-aminopyridin-3-yl)ethyl)-4-fluoro-2-((1-(((R)-3-fluoropyrrolidin-1-yl)methyl)cyclopropyl)methoxy)-9,10-dihydro-8H-7-oxa-1,3,6,10-tetraazacyclohepta[de]naphthalen-5-yl)-5-ethyl-6-fluoronaphthalen-2-ol]
IC50 ([1]; Homo sapiens, ASPC1, 72 h): 1 to 10 µM

CCc1c(F)ccc2cc(O)cc(-c3nc4c5c(nc(OC[C@@H]6CCCN6CC(F)F)nc5c3F)N(C(C)c3cccnc3N)CCO4)c12 (stereo partly drawn) [Example 27, 4-(10-(1-(2-aminopyridin-3-yl)ethyl)-2-(((S)-1-(2,2-difluoroethyl)pyrrolidin-2-yl)methoxy)-4-fluoro-9,10-dihydro-8H-7-oxa-1,3,6,10-tetraazacyclohepta[de]naphthalen-5-yl)-5-ethyl-6-fluoronaphthalen-2-ol]
IC50 ([1]; Homo sapiens, ASPC1, 72 h): > 10 µM

CCc1c(F)ccc2cc(O)cc(-c3nc4c5c(nc(OC[C@@]67CCCN6C[C@H](F)C7)nc5c3F)N(C)CCO4)c12 [Example 28, 5-ethyl-6-fluoro-4-(4-fluoro-2-(((2R,7aS)-2-fluorotetrahydro-1H-pyrrolizin-7a(5H)-yl)methoxy)-10-methyl-9,10-dihydro-8H-7-oxa-1,3,6,10-tetraazacyclohepta[de]naphthalen-5-yl)naphthalen-2-ol]
IC50 ([1]; Homo sapiens, ASPC1, 72 h): > 10 µM

CC(c1cccnc1N)N1CCOc2c(Cl)c(-c3ccc(F)c4sc(N)c(C#N)c34)c(F)c3nc(OC[C@@]45CCCN4C[C@H](F)C5)nc1c23 (stereo partly drawn) [Example 29a, (4R)-2-amino-4-(4-(1-(2-aminopyridin-3-yl)ethyl)-8-chloro-10-fluoro-2-(((2R,7aS)-2-fluorotetrahydro-1H-pyrrolizin-7a(5H)-yl)methoxy)-5,6-dihydro-4H-[1,4]oxazepino[5,6,7-de]quinazolin-9-yl)-7-fluorobenzo[b]thiophene-3-carbonitrile]
IC50 ([1]; Homo sapiens, ASPC1, 72 h): < 1 µM | IC50 [2]: < 1 µM

CC(c1cccnc1N)N1CCOc2c(Cl)c(-c3ccc(F)c4sc(N)c(C#N)c34)c(F)c3nc(OC[C@@]45CCCN4C[C@H](F)C5)nc1c23 (stereo partly drawn) [Example 29b, (4S)-2-amino-4-(4-(1-(2-aminopyridin-3-yl)ethyl)-8-chloro-10-fluoro-2-(((2R,7aS)-2-fluorotetrahydro-1H-pyrrolizin-7a(5H)-yl)methoxy)-5,6-dihydro-4H-[1,4]oxazepino[5,6,7-de]quinazolin-9-yl)-7-fluorobenzo[b]thiophene-3-carbonitrile]
IC50 ([1]; 72 hours): 1 to 10 µM
